# Active and inactive are the calls of the source. No cut-off for these calls is given here.
# Key:
# MGC-803 [1] = assay: Downregulation of c-FOS level in human MGC-803 cells at 4 uM incubated for 24 hrs by immunoblotting analysis; format: functional, cell-based
# MGC-803 [2] = assay: Induction of apoptosis in human MGC-803 cells assessed as necrotic cells at 1 uM incubated for 48 hrs by Annexin V-FITC/PI staining based flow cytometry analysis (reference value: 0.83%); format: functional
# MGC-803 [3] = assay: Induction of cell cycle arrest in human MGC-803 cells assessed as accumulation of cells at G2/M phase incubated for 48 hrs by PI staining based flow cytometry analysis; format: functional; settings: dose 0.25-1 µM
# MGC-803 [4] = assay: Downregulation of alpha-SMA expression in human MGC-803 cells at 1 to 4 uM incubated for 48 hrs by Western blot analysis; format: functional, cell-based; settings: dose 1-4 µM
# MGC-803 [5] = assay: Downregulation of ACAT2 mRNA level in human MGC-803 cells at 4 uM incubated for 24 hrs by RT-qPCR analysis; format: functional, cell-based
# MGC-803 [6] = assay: Induction of apoptosis in human MGC-803 cells assessed as upregulation of cleaved caspase-3 expression at 1 to 4 uM incubated for 24 hrs by Western blot analysis; format: functional, cell-based; settings: dose 1-4 µM
# MGC-803 [7] = assay: Antiproliferative activity against human MGC-803 cells assessed as reduction in clone areas incubated for 48 hrs […]; format: functional, cell-based; settings: dose <= 2.0 µM
# MGC-803 [8] = assay: Induction of apoptosis in human MGC-803 cells assessed as necrotic cells at 2 uM incubated for 48 hrs by Annexin V-FITC/PI staining based flow cytometry analysis (reference value: 0.83%); format: functional
# MGC-803 [9] = assay: Downregulation of c-jun level in human MGC-803 cells at 4 uM incubated for 24 hrs by immunoblotting analysis; format: functional, cell-based
# MGC-803 [10] = assay: Antiproliferative activity against human MGC-803 cells assessed as inhibition of cell growth upto 2.5 uM by MTT assay; format: functional, cell-based; settings: time 24-72 hrs
# MGC-803 [11] = assay: Induction of ROS accumulation in human MGC-803 cells assessed as increase in fluorescence intensity at 1 to 4 uM incubated for 48 min by DCFH-DA and PI staining based microscopic analysis; format: functional, cell-based; settings: dose 1-4 µM
# MGC-803 [12] = assay: Antitumor activity against human MGC-803 cells xenografted in BALB/c mouse assessed as inhibition of tumor growth at 25 to 50 mg/kg, IG administered for 14 days; format: functional, organism-based; settings: dose 25-50 mg/kg, time 14.0 day
# MGC-803 [13] = assay: Downregulation of c-FOS mRNA level in human MGC-803 at 4 uM incubated for 24 hrs by RT-qPCR analysis; format: functional, cell-based
# MGC-803 [14] = assay: Lipid-lowering activity in human MGC-803 cells assessed as reduction in lipid droplet accumulation by Oil Red O staining based analysis; format: functional, cell-based; settings: dose 1-4 µM
# MGC-803 [15] = assay: Induction of apoptosis in human MGC-803 cells assessed as viable cells at 4 uM incubated for 48 hrs by Annexin V-FITC/PI staining based flow cytometry analysis (reference value: 93.9%); format: functional; settings: read-out: Activity
# MGC-803 [16] = assay: Induction of cell cycle arrest in human MGC-803 cells assessed as reduction in CDC25C level incubated for 24 hrs by Western blot analysis; format: functional, cell-based; settings: dose 1-4 µM
# MGC-803 [17] = assay: Induction of apoptosis in human MGC-803 cells assessed as necrotic cells at 4 uM incubated for 48 hrs by Annexin V-FITC/PI staining based flow cytometry analysis (reference value: 0.83%); format: functional
# MGC-803 [18] = assay: Induction of apoptosis in human MGC-803 cells assessed as upregulation of Bax expression at 1 to 4 uM incubated for 24 hrs by Western blot analysis; format: functional, cell-based; settings: dose 1-4 µM
# MGC-803 [19] = assay: Induction of apoptosis in human MGC-803 cells assessed as viable cells at 2 uM incubated for 48 hrs by Annexin V-FITC/PI staining based flow cytometry analysis (reference value: 93.9%); format: functional; settings: read-out: Activity
# MGC-803 [20] = assay: Downregulation of FABP3 mRNA level in human MGC-803 cells at 4 uM incubated for 24 hrs by RT-qPCR analysis; format: functional, cell-based
# MGC-803 [21] = assay: Induction of apoptosis in human MGC-803 cells assessed as late apoptotic cells at 4 uM incubated for 48 hrs by Annexin V-FITC/PI staining based flow cytometry analysis (reference value: 0.98%); format: functional
# MGC-803 [22] = assay: Induction of apoptosis in human MGC-803 cells assessed as late apoptotic cells at 1 uM incubated for 48 hrs by Annexin V-FITC/PI staining based flow cytometry analysis (reference value: 0.98%); format: functional
# MGC-803 [23] = assay: Inhibition of cell migration in human MGC-803 cells incubated for 24 hrs by microscopic analysis; format: functional, cell-based; settings: dose <= 1.0 µM
# MGC-803 [24] = assay: Downregulation of ACSS2 mRNA level in human MGC-803 cells at 4 uM incubated for 24 hrs by RT-qPCR analysis; format: functional, cell-based
# ECa-109 cell line = assay: Antiproliferative activity against human Eca-109 cells assessed as inhibition of cell growth incubated for 24 to 72 hrs by MTT assay; format: functional, cell-based; settings: time 24-72 hrs
# MGC-803 [25] = assay: Upregulation of E-cadherin expression in human MGC-803 cells at 1 to 4 uM incubated for 48 hrs by Western blot analysis; format: functional, cell-based; settings: dose 1-4 µM
# MGC-803 [26] = assay: Induction of cell cycle arrest in human MGC-803 cells assessed as accumulation of cells at G2/M phase at 1 uM incubated for 48 hrs by PI staining based flow cytometry analysis; format: functional
# MGC-803 [27] = assay: Inhibition of ERK phosphorylation in human MGC-803 cells at 4 uM measured after 24 hrs by Western blot analysis; format: cell-based
# MGC-803 [28] = assay: Induction of apoptosis in human MGC-803 cells assessed as viable cells at 1 uM incubated for 48 hrs by Annexin V-FITC/PI staining based flow cytometry analysis (reference value: 93.9%); format: functional; settings: read-out: Activity
# MGC-803 [29] = assay: Induction of cell cycle arrest in human MGC-803 cells assessed as accumulation of cells at G2/M phase at 0.5 uM incubated for 48 hrs by PI staining based flow cytometry analysis; format: functional
# MGC-803 [30] = assay: Antiproliferative activity against human MGC-803 cells assessed as inhibition of cell growth incubated for 24 to 72 hrs by MTT assay; format: functional, cell-based
# [31] = Potency index, ratio of andrographolide IC50 to test compound IC50 for antiproliferative activity against human MGC-803 cells assessed as inhibition of cell growth incubated for 24 to 72 hrs by MTT assay; format: functional; settings: time 24-72 hrs
# HGC-27 = assay: Antiproliferative activity against human HGC-27 cells assessed as inhibition of cell growth incubated for 48 hrs by MTT assay; format: functional, cell-based; settings: HGC-27, 48 h
# MGC-803 [32] = assay: Induction of cell cycle arrest in human MGC-803 cells assessed as accumulation of cells at G2/M phase at 0.25 uM incubated for 48 hrs by PI staining based flow cytometry analysis; format: functional
# MGC-803 [33] = assay: Induction of apoptosis in human MGC-803 cells assessed as downregulation of […] expression at 1 to 4 uM incubated for 24 hrs by Western blot analysis; format: functional, cell-based; settings: dose 1-4 µM
# MCF7 = assay: Antiproliferative activity against human MCF7 cells assessed as inhibition of cell growth incubated for 24 to 72 hrs by MTT assay; format: functional, cell-based; settings: time 24-72 hrs
# MGC-803 [34] = assay: Induction of apoptosis in human MGC-803 cells assessed as early apoptotic cells at 1 uM incubated for 48 hrs by Annexin V-FITC/PI staining based flow cytometry analysis (reference value: 0.30%); format: functional
# MGC-803 [35] = assay: Induction of apoptosis in human MGC-803 cells assessed as upregulation of cleaved PARP expression at 1 to 4 uM incubated for 24 hrs by Western blot analysis; format: functional, cell-based; settings: dose 1-4 µM
structure (smiles),measurement,setting,value
C=C1CC[C@@H]2[C@](C)(CO)[C@H](O)CC[C@@]2(C)[C@@H]1/C=C/C1=CC(=C/c2ccc(C)cc2)/NC1=O,Activity,MGC-803 [1],Active
same,Activity,MGC-803 [2],12.6%
same,Activity,MGC-803 [3],Dose-dependent-effect
same,Activity,MGC-803 [4],Active
same,Activity,MGC-803 [5],Active
same,Activity,MGC-803 [6],Active
same,Activity,MGC-803 [7],Dose-dependent-effect
same,Activity,MGC-803 [8],12.9%
same,Activity,MGC-803 [9],Active
same,Activity,MGC-803 [10],Time-dependent-effect
same,Activity,MGC-803 [11],Active
same,TGI,MGC-803 [12],Active
same,Activity,MGC-803 [13],Active
same,Activity,MGC-803 [14],Dose-dependent-effect
same,viability at 4 µM,MGC-803 [15],16%
same,Activity,MGC-803 [16],Dose-dependent-effect
same,Activity,MGC-803 [17],4.54%
same,Activity,MGC-803 [18],Active
same,viability at 2 µM,MGC-803 [19],40.2%
same,Activity,MGC-803 [20],Active
same,Activity,MGC-803 [21],47.5%
same,Activity,MGC-803 [22],15.1%
same,inhibition,MGC-803 [23],Dose-dependent-effect
same,Activity,MGC-803 [24],Active
same,Activity,ECa-109 cell line,inactive
same,Activity,MGC-803 [25],Active
same,Activity,MGC-803 [26],25.4%
same,inhibition,MGC-803 [27],Active
same,viability at 1 µM,MGC-803 [28],71.9%
same,Activity,MGC-803 [29],14.5%
same,IC50,MGC-803 [30],2.31 µM
same,Activity,MGC-803 [30]; time 24-72 hrs,Dose-dependent-effect
same,Ratio IC50,[31],~14
same,IC50,HGC-27,6.5 µM
same,Activity,MGC-803 [32],9.59%
same,Activity,MGC-803 [33],Active
same,Activity,MCF7,inactive
same,Activity,MGC-803 [34],0.44%
same,Activity,MGC-803 [35],Active

# Reference: ChEMBL document CHEMBL6153084, “The development of α, β-unsaturated lactam-based andrographolide derivatives as anti-gastric cancer agents with the ability of inhibiting the ERK/c-Fos/Jun pathway” (Eur J Med Chem, 2025)
